Assay results as given in paper PMC4624854 (Frontiers in Molecular Neuroscience, 2015).

What was measured:
α1 GlyR [1] = test system: α1 GlyR; set-up: method as in Raafat et al., 2010; details: non-competitive inhibition; ref Raafat et al., 2010; cited from earlier work
α1 GlyR subunits = test system: α1 GlyR subunits; set-up: method as in Xiong et al., 2011; details: ref Xiong et al., 2011; cited from earlier work
α3 GlyR subunits = test system: α3 GlyR subunits; set-up: method as in Xiong et al., 2011; details: ref Xiong et al., 2011; cited from earlier work
GABAAR α1/β2/γ2 = GABAAR α1/β2/γ2 (Homo sapiens, UniProt P14867+P47870); assay: whole-cell patch-clamp of GABA-evoked currents, α1/β2/γ2 GABAARs in CHO cells; type: cell-based
GABAAR α1/β2/γ2, sequence (P14867 28-456): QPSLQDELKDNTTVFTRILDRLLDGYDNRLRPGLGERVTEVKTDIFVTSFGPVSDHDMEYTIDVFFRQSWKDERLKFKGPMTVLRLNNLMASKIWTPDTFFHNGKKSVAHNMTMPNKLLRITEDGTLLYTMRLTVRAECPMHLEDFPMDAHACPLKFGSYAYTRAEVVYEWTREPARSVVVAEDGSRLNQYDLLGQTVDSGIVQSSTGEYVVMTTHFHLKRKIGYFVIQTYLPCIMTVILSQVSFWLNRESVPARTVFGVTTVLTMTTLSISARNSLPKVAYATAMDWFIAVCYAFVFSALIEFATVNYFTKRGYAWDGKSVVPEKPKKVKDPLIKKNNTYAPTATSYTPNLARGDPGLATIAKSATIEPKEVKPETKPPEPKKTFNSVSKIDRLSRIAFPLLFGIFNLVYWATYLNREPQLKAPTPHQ
GABAAR α1/β2/γ2, sequence (P47870 26-512): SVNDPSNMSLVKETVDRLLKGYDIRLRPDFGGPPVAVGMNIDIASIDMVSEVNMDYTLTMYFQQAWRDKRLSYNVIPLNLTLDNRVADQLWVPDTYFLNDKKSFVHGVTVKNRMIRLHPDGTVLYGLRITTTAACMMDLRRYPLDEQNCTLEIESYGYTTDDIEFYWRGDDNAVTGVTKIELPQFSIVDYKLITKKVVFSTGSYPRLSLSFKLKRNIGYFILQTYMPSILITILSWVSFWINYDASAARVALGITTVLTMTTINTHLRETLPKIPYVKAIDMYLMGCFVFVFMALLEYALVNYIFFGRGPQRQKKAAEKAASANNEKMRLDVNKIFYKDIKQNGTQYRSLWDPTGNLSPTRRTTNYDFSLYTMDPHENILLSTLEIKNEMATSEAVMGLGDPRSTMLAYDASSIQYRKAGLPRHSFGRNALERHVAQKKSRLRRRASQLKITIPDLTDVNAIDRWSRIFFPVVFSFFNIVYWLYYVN
GABAAR α1/β2/γ2, sequence (P18507 40-475 partner): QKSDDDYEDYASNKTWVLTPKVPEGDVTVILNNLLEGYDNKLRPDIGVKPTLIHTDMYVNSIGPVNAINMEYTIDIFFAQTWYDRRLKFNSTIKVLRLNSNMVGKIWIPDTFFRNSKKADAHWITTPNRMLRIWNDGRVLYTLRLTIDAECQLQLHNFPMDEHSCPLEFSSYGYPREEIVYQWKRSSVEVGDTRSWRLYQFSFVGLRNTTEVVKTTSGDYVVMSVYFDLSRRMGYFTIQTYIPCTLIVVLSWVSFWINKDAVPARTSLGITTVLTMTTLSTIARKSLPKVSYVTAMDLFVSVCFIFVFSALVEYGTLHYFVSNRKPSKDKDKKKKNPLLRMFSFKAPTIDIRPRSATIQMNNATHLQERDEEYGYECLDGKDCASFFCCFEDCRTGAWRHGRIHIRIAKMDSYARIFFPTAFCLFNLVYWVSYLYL
Experimental: (§1) For electrophysiological analysis cells were transfected with cDNAs of different receptor-operated channels. One day before the transfection, cells were plated on the coverslips (12–14 mm in diameter), which were placed inside 35-mm cell culture dishes with 2 ml of medium. CHO-K1 cells were transfected with the following cDNAs encoding GlyR subunits: human α1 (1 μg/1 μl), α2 (2 μg/1 μl), α3-long (2 μg/1 μl), and β (in combination with α1 or α2 subunits with the ratio of cDNAs concentrations 1α:5β); or with a mixture of cDNAs encoding GABAA receptors: α1-GFP (1 μg/μl), β2 (1 μg/μl), γ2 (1 μg/μl) using the Lipofectamine 2000 transfection protocol (Life Technology, USA). To facilitate identification of expressing cells, in the case of GlyR, green fluorescent protein (GFP, 0.5 μg/μl) was added to the transfection medium. Visualization of GABAAR expression was achieved by using the α1-GFP construct ([Bueno et al., 1998]). Three hours after the initial exposure of the cells to the cDNAs, a fresh solution replaced the old one. […] Electrophysiological recordings were performed on fluorescent cells 24–72 h after transfection.
Whole-cell recordings were performed at room temperature (20–25 °C) using an EPC-9 amplifier (HEKA Elektronik, Germany). Cells were continuously superfused with external solution containing (mM): NaCl 140, CaCl2 2, KCl 2.8, MgCl2 4, HEPES 20, glucose 10; pH 7.4; 320–330 mOsm. Two intracellular solutions were used for filling recording patch pipettes. […] In the experiments performed with CsCl intracellular solution, ionic currents were recorded at holding potential (Vh) –30 mV. […] Two parallel rectangular tubes (100 μm × 100 μm) were positioned 40–50 μm above the recorded cell. The movement of the tubes was controlled by a computer-driven fast exchange system (SF 77A Perfusion Fast-Step, Warner, USA) allowing a 10–90% solution exchange in 3–5 ms, as measured by open electrode controls (1/10 external solution/water). […]
(§2) All electrophysiological results were analyzed using PatchMaster (HEKA Electronik, Germany) software. […]

[2] = test system: protein phosphatase 2C (PP2C); set-up: method as in Ahlemeyer et al., 2001; details: ref Ahlemeyer et al., 2001; cited from earlier work
[3] = target: T1, α3 GlyR (α3L splice variant) (Homo sapiens, UniProt O75311); assay: whole-cell patch-clamp of Igly, α3-long (α3L) GlyRs in CHO cells; type: cell-based
T1 construct: expressed in transfected cells; host or cells: CHO-K1
T1 sequence (O75311 34-464): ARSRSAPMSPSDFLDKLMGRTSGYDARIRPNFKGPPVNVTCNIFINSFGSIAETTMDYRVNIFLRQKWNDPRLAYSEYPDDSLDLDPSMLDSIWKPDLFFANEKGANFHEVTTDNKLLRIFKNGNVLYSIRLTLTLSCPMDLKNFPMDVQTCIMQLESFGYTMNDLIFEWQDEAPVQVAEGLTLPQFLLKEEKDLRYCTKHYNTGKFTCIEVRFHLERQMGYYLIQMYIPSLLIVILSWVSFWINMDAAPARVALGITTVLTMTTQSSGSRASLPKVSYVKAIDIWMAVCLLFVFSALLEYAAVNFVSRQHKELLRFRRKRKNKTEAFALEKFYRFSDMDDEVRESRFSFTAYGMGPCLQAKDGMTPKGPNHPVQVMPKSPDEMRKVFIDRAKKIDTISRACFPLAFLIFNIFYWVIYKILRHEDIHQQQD
Experimental: as §1
(§3) Whole-cell recordings were performed at room temperature (20–25 °C) using an EPC-9 amplifier (HEKA Elektronik, Germany). Cells were continuously superfused with external solution containing (mM): NaCl 140, CaCl2 2, KCl 2.8, MgCl2 4, HEPES 20, glucose 10; pH 7.4; 320–330 mOsm. Two intracellular solutions were used for filling recording patch pipettes. First, mainly used, ‘CsCl solution’ contained (mM): CsCl 140, CaCl2 6, MgCl2 2, MgATP 2, NaGTP 0.4, HEPES/CsOH 10, BAPTA/KOH 20; pH 7.3; 290 mOsm. In the experiments performed with CsCl intracellular solution, ionic currents were recorded at holding potential (Vh) –30 mV. In some experiments, ‘Kgluconate solution’ was used, in which CsCl 140 mM was replaced by KCl 20 mM + Kgluconate 120 mM. Recordings with this solutions were performed at Vh = 0 mV. Pipettes were pulled from borosilicate glass capillaries (Harvard Apparatus Ltd, USA) and had resistances of 5–10 MOhms. For rapid replacement of solutions, the fast application system was used in this study. Two parallel rectangular tubes (100 μm × 100 μm) were positioned 40–50 μm above the recorded cell. The movement of the tubes was controlled by a computer-driven fast exchange system (SF 77A Perfusion Fast-Step, Warner, USA) allowing a 10–90% solution exchange in 3–5 ms, as measured by open electrode controls (1/10 external solution/water).
In all experiments, the duration of the pulses of agonist was 2 s. The duration of ginkgolic acid application varied from 20 s to 6 min. Cells with low input resistance (<150 MOhms) and a rapid run-down (>30% with repetitive application) were excluded from analysis.
(§4) All electrophysiological results were analyzed using PatchMaster (HEKA Electronik, Germany) software. Dose–response curves were constructed by fitting values obtained at different concentrations, after normalization.

heteromeric α1/β GlyRs = target: T2, heteromeric α1/β GlyRs (Homo sapiens, UniProt P23415); assay: whole-cell patch-clamp of Igly, heteromeric α1/β GlyRs in CHO cells; type: cell-based; details: for increase of currents induced by subsaturating glycine: 25 μM ginkgolic acid, n = 5
T2 construct: expressed in transfected cells; host or cells: CHO-K1
T2 sequence (P48167 23-497 partner, one chain of several): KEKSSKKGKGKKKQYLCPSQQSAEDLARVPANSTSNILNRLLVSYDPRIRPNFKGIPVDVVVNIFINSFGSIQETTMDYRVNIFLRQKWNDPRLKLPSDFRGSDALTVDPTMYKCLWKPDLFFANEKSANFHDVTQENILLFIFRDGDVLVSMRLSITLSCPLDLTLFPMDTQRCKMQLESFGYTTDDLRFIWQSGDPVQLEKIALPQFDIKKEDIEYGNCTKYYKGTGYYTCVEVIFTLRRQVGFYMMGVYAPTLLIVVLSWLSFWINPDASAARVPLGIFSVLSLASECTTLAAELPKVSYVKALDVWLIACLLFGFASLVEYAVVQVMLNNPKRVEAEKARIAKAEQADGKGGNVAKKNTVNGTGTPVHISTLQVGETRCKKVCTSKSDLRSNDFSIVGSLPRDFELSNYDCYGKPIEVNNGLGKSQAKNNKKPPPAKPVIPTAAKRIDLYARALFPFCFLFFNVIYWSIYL
Experimental: as §1
Whole-cell recordings were performed at room temperature (20–25 °C) using an EPC-9 amplifier (HEKA Elektronik, Germany). Cells were continuously superfused with external solution containing (mM): NaCl 140, CaCl2 2, KCl 2.8, MgCl2 4, HEPES 20, glucose 10; pH 7.4; 320–330 mOsm. Two intracellular solutions were used for filling recording patch pipettes. First, mainly used, ‘CsCl solution’ contained (mM): CsCl 140, CaCl2 6, MgCl2 2, MgATP 2, NaGTP 0.4, HEPES/CsOH 10, BAPTA/KOH 20; pH 7.3; 290 mOsm. In the experiments performed with CsCl intracellular solution, ionic currents were recorded at holding potential (Vh) –30 mV. […] Two parallel rectangular tubes (100 μm × 100 μm) were positioned 40–50 μm above the recorded cell. The movement of the tubes was controlled by a computer-driven fast exchange system (SF 77A Perfusion Fast-Step, Warner, USA) allowing a 10–90% solution exchange in 3–5 ms, as measured by open electrode controls (1/10 external solution/water). […]

α2 GlyRs = target: T3, α2 GlyRs (Homo sapiens, UniProt P23416); assay: whole-cell patch-clamp of Igly, homomeric α2 GlyRs in CHO cells; type: cell-based
T3 construct: expressed in transfected cells; host or cells: CHO-K1
T3 sequence (P23416 28-452): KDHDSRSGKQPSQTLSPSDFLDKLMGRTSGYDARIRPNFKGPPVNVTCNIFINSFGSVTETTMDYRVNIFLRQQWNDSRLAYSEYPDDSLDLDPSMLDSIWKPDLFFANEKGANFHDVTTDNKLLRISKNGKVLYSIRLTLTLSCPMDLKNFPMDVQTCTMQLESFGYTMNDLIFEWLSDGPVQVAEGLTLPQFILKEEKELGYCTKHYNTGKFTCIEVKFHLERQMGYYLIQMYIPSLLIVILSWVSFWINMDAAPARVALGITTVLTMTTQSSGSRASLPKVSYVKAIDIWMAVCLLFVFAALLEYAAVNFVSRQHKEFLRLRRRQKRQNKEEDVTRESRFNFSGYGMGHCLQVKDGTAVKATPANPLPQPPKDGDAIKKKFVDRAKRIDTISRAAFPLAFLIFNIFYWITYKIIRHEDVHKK
Experimental: (§5) For electrophysiological analysis cells were transfected with cDNAs of different receptor-operated channels. One day before the transfection, cells were plated on the coverslips (12–14 mm in diameter), which were placed inside 35-mm cell culture dishes with 2 ml of medium. CHO-K1 cells were transfected with the following cDNAs encoding GlyR subunits: human α1 (1 μg/1 μl), α2 (2 μg/1 μl), α3-long (2 μg/1 μl), and β (in combination with α1 or α2 subunits with the ratio of cDNAs concentrations 1α:5β); or with a mixture of cDNAs encoding GABAA receptors: α1-GFP (1 μg/μl), β2 (1 μg/μl), γ2 (1 μg/μl) using the Lipofectamine 2000 transfection protocol (Life Technology, USA). […]
(§6) Whole-cell recordings were performed at room temperature (20–25 °C) using an EPC-9 amplifier (HEKA Elektronik, Germany). […] In the experiments performed with CsCl intracellular solution, ionic currents were recorded at holding potential (Vh) –30 mV. […] Two parallel rectangular tubes (100 μm × 100 μm) were positioned 40–50 μm above the recorded cell. The movement of the tubes was controlled by a computer-driven fast exchange system (SF 77A Perfusion Fast-Step, Warner, USA) allowing a 10–90% solution exchange in 3–5 ms, as measured by open electrode controls (1/10 external solution/water). […]
as §2

α1 GlyR [4] = target: T4, α1 GlyR (Homo sapiens, UniProt P23415); assay: whole-cell patch-clamp of Igly, α1 GlyR expressed in mouse neuroblastoma (N2a) cells; type: cell-based; set-up: expressed in transfected cells; host or cells: mouse neuroblastoma N2a; details: 3 μM ginkgolic acid, first two applications (Figure 2B)
T4 sequence (P23415 29-457): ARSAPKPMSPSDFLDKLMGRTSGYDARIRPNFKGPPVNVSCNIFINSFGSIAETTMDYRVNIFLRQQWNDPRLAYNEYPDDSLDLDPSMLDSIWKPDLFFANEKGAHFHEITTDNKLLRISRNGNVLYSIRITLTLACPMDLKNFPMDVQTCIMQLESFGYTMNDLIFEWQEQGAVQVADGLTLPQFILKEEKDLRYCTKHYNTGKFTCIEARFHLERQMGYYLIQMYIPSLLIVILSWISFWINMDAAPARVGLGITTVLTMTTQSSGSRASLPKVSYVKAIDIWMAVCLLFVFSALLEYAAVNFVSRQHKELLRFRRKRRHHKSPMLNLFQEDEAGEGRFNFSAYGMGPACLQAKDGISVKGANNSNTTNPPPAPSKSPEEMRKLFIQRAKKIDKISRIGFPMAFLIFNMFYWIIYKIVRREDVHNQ
Experimental: as §5, §6

α1 GlyR [5] = target: T4, α1 GlyR; assay: whole-cell patch-clamp of glycine-induced currents (Igly), homomeric α1 GlyRs expressed in CHO cells; details: for average Igly (mean current amplitude) after ginkgolic acid: 2 min, control 291 ± 65
Experimental: The experiments were carried out on cultured Chinese hamster ovary (CHO-K1) cells obtained from the American Type Tissue Culture Collection (ATCC, Molsheim, France) and on mouse neuroblastoma cells (N2a) cells that were maintained in culture conditions as previously described ([Waseem et al., 2010]; [Mukhtarov et al., 2013]).
as §1, §3
In all experiments, the duration of the pulses of agonist was 2 s. […] Cells with low input resistance (<150 MOhms) and a rapid run-down (>30% with repetitive application) were excluded from analysis.
as §4
where I is the normalized current amplitude induced by the agonist at concentration [A], nH is the Hill coefficient and EC50 is the concentration at which a half-maximum response was induced.
Paired and unpaired Student’s t-tests were used for statistical analysis. The data are expressed as the means ± SEM.

[6] = test system: GlyR subunits α1, α2, α3; heteromeric vs homomeric GlyRs; set-up: method as in Kondratskaya et al., 2005; details: ref Kondratskaya et al., 2005; cited from earlier work

## O=c1c(O)c(-c2ccc(O)c(O)c2)oc2cc(O)cc(O)c12 [Quercetin]
α1 GlyR [1]
  IC50: ~45 µM

## CCCCCc1cc(O)c2c(c1)OC(C)(C)C1CCC(C)=CC21 (centres unmarked) [THC, Δ^9-tetrahydrocannabiol]
α1 GlyR subunits
  concentration from which potentiation begins: ≥ 30 nM
α3 GlyR subunits
  concentration from which potentiation begins: ≥ 30 nM

## CCCCCC/C=C\CCCCCCCc1cccc(O)c1C(=O)O [ginkgolic acid]
GABAAR α1/β2/γ2; 25 μM ginkgolic acid, 20–40 s, GABA 1 μM (EC10) or 10 μM (EC50)
  changes in GABA-evoked currents: did not observe any changes
GABAAR α1/β2/γ2; 25 μM ginkgolic acid, GABA 10 μM, n = 16, control 235 ± 65
  mean current after ginkgolic acid application: 228 ± 63 pA
GABAAR α1/β2/γ2; GABA 10 μM, n = 16, control 235 ± 65
  mean current after washout of ginkgolic acid: 232 ± 65 pA
[2]
  concentrations at which effects on PP2C were caused: > 100 µM
[3]; 25 μM ginkgolic acid
  overall effect on the amplitude of whole-cell currents: negligible
[3]; 25 μM ginkgolic acid, 20–40 sec pre-treatment, one cell
  change of current induced by 100 μM glycine, one cell with weak potentiation: +4%
[3]; 25 μM ginkgolic acid, glycine 100 μM, n = 6, control 338 ± 101
  mean current in the presence of ginkgolic acid: 318 ± 96 pA
[3]; glycine 100 μM, n = 6, control 338 ± 101
  mean current after washout of ginkgolic acid: 326 ± 113 pA
Heteromeric α1/β GlyRs
  increase of currents induced by subsaturating glycine: 82 ± 39%
Heteromeric α1/β GlyRs; listed as GA
  increase of currents induced by subsaturating glycine: 82%±39
Heteromeric α1/β GlyRs; glycine 0.3–1 mM
  effect on currents induced by saturated glycine: did not increase
α2 GlyRs; 1 μM ginkgolic acid
  effect on Igly at 1 μM: not detectable
α2 GlyRs; ginkgolic acid <10 μM
  effect on the amplitude of Igly at low concentrations: no effect
α1 GlyR [4]
  increase in Igly in N2a cells: more than twofold increase
α1 GlyR [5]
  threshold of potentiation of α1 GlyR: ~30 nM
α1 GlyR [5]; 30 nM ginkgolic acid, glycine 30 μM
  time of treatment after which potentiation was observed (onset): 2 to 3 min
α1 GlyR [5]; 100 nM ginkgolic acid, 20–30 s, n = 8
  augmentation of Igly after 20–30 s of pre-treatment: 26 ± 8%
α1 GlyR [5]; 100 nM ginkgolic acid, 40 s, glycine 30 μM, one cell (Figure 2A)
  potentiation of Igly following the first 40 s: 54%
α1 GlyR [5]; 100 nM ginkgolic acid, glycine 30 μM, n = 8
  average Igly (mean current amplitude) after ginkgolic acid: 467 ± 124 pA
α1 GlyR [5]; 100 nM ginkgolic acid, glycine 30 μM, n = 8, listed as GA
  average Igly (mean current amplitude) after ginkgolic acid: 467±124 pA
α1 GlyR [5]; 100 nM ginkgolic acid, 2 min pre-application, glycine 30 μM, n = 8 cells (range in different cells and mean ± SEM)
  degree of potentiation of Igly: 51 ± 10%
α1 GlyR [5]; 3 μM ginkgolic acid, 30 s, glycine 30 μM
  enhancement of Igly after 30 s: > 30%
α1 GlyR [5]; glycine 0.3–1 mM
  effect on amplitudes of currents induced by saturating glycine: not affected

## NCC(=O)O [glycine, reference compound]
[3]; read-out: EC50 to glycine in control, n = 11
  EC50: 142 ± 9.8 µM

## ginkgolide B
[6]
  preference for α1 vs. α2 GlyR subunits: about 5 fold
  preference for α1 vs. α3 GlyR subunits: ~3 fold
